The values that follow are results of earlier work, collected in patent US20250287953A1 (CHEMICEUTICAL INC., priority 2021, published 2025).

Regarding zinc pyrithione, the “acute oral toxicity to rodents LD50 (50% lethal dose)” value is given as 269 mg/kg.
